What all share (type): cell-based, human
The subject of test [1] is AML BMMC leukemic blasts. As to the kind of experiment: Functional apoptosis assay, AML study No. 2 (etoposide or Ara-C and daunorubicin, 24 hours). To be noted: patients younger than 60 years old. On the procedure: Multi-parameter flow cytometric analysis was performed on BMMC samples taken at diagnosis from 61 AML patients. The samples were balanced for complete response (CR) and non-responders (NR) after 1 to 3 cycles of induction therapy and de novo versus secondary AML. Nodes in Tables 2 to 10 were examined.
Functional assays were performed as previously described. […]
The median fluorescence intensity (MFI) was computed for each node from the fluorescence intensity levels for the cells in the myeloid population. The MFI values were then used to compute a variety of metrics by comparing them to baseline or background values, including the unmodulated condition, cellular autofluorescence and antibody isotype controls. The following metrics were computed: • 1. Basal MFI (“Basal”)=log2(MFIUnmodulated Stained)−log2(MFIGated Unstained (Autofluoresence)), designed to measure the basal levels of a certain protein under unmodulated conditions. • 2. Fold Change MFI (“Fold”)=log2(MFIModulated Stained)−log2(MFIUnmodulated Stained), a measure of the change in the activation state of a protein under modulated conditions. • 3. Total Phospho MFI (“TotalPhospho”)=log2(MFIModulated Stained)−log2(MFIGated Unstained (Autofluorescence)), a measure of the total levels of a protein under modulated conditions. • 4. […]

The subject of test [2] is FLT3-WT and FLT3-ITD AML leukemic blasts. As to the kind of experiment: SCNP signaling and apoptosis in FLT3-WT versus FLT3-ITD AML samples (Example 9). The settings on record: FLT3-ITD vs FLT3-WT samples, study 1 and study 2. The source says:
This example identifies intracellular signaling pathways associated with FLT3 ITD in two independent cohorts of diagnostic AML samples that serve as an improvement over current clinical tools in the identification of clinically meaningful altered FLT 3 and has implications for cohort selection in the development of FLT3 inhibitors. The two cohorts of data were further analyzed to investigate the differences in signaling between FLT-WT and FLT-ITD samples. The first cohort of data (“study 1”) comprised the 34 samples from University Health Network outlined in Table 16 and Table 19. The second cohort of data (“study 2”) comprised an 83 sample subset of MD Anderson Cancer Center data outlined in Table 16 (and Table 19). The 83 sample subset was selected based on known FLT3 mutation status. Both cohorts of data were used to investigate differences in FLT3 signaling between leukemic blasts and control data.
In order to further characterize wild-type FLT receptor signaling in AML, we compared FLT3L-induced signaling in the myeloblast population of control BMMC samples with FLT3L-induced signaling in the leukemic blast population of FLT3-WT AML samples.
Univariate analysis, unadjusted for multiple testing, was performed sequentially and independently on the two study cohorts in order to identify signaling nodes that distinguished with FLT3-ITD from FLT3-WT AML patient samples. […] Results from both studies include the AUC, Wilcoxon and t-test p-value for each node, and the number/mean value of the samples in the FLT3-ITD and FLT3-WT AML groups with common stratifying nodes summarized in FIG. 23. Although the majority of the discussion herein is directed to nodes that had similar reponses within the two cohorts of data, some differences were observed between the two cohorts of data. These differences may have been due to the different clinical characteristics of the two cohorts of data, specifically biases in the data from UHN.

Test [3] concerns pediatric AML leukemic blasts. As to the kind of experiment: SCNP assay on pediatric AML bone marrow samples, POG trial 9421 (Example 11).
Procedure: SCNP assays were performed on 77 bone marrow samples from pediatric AML patients enrolled in POG trial 9421 of which 67 were evaluable/had sufficient data for analysis and were enriched for non-responders (NR). 80 combinations of modulators and intra-cellular proteins (signaling nodes) were investigated including nodes involved in the phosphoinositide 3-kinase (PI3K), Janus Kinases (JAK), signal transducers and activators of transcription (STAT) and the DNA damage response and apoptosis pathways. Basal and modulated protein levels in leukemic blasts were measured using several metrics (e.g., fold change, total level of phosphorylation, and a rank based method Uu measuring the proportion of cells that shift from baseline), and nodes were examined in univariate and multivariate analyses for their ability to discriminate between AML responsive (CR, n=46) and non-responsive (NR, n=21) to anthracycline/cytarabine-based induction therapy. Furthermore, nodes were examined for their ability to identify patients likely to be in complete continuous remission (CCR, n=23) or relapse (CR-Rel, n=23) within 4 years.
The test system of a further test is AML blasts. The test can be described thus: SCNP / phospho-flow modulated signaling assay, AML study No. 1 (PBMC at diagnosis, CR vs NR).
Test [4] concerns AML BMMC leukemic blasts. As to the kind of experiment: SCNP modulated signaling assay, AML study No. 2 (BMMC, CR vs NR, clinical sub-groups).
The next test concerns AML leukemic cells. As to the kind of experiment: Apoptosis/cytostasis arm: 48-hr kinase inhibitor incubation of AML cells (cleaved PARP, CyclinB1, p-Histone H3). To be noted: 1 μM; two samples with the greatest SCF and G-CSF signaling response and most robust proliferation. On the procedure: The TKIs impact was measured on distal functional readouts, including apoptosis (cleaved PARP) and cell cycle (CyclinB1-S/G2 phase; p-Histone H3-M phase). All results were compared with results from bone marrow samples from healthy donors (N=6).

Consider `COc1cc([C@@H]2c3cc4c(cc3[C@@H](O[C@@H]3O[C@@H]5CO[C@@H](C)O[C@H]5[C@H](O)[C@H]3O)[C@H]3COC(=O)[C@H]23)OCO4)cc(OC)c1O` [Etoposide], for which the “induced apoptosis, CR vs NR” value in the test on AML BMMC leukemic blasts [1] is “CRs induce apoptosis to Etoposide or Ara-C/Daunorubicin more than NRs”. The “in vitro apoptosis (etoposide→c-PARP|Total)” value in test [2] was “more sensitive to in vitro apoptosis than FLT3-WT samples”. For the same compound, the “apoptotic response (c-PARP, p-Chk2), CR vs NR” value in test [3] (CR n=46, NR n=21) is “higher levels of apoptosis in CR samples than in NR samples”.
`OO` [H2O2, hydrogen peroxide, reference compound]: the “phosphorylated PLCγ2 and SLP-76 upon H2O2 treatment” value in the test on AML blasts (CR patients versus NR patients) was “attained higher levels of phosphorylated PLCγ2 and SLP-76 upon H2O2 treatment”. For the same compound, the “p-Akt levels upon H2O2 treatment” value in the test with AML blasts (NR vs CR patient blasts) was “higher levels of p-Akt in NR patients versus CR patients”. Moreover, the “p-AKT and p-PLCγ2 following H2O2 treatment” value in the test on AML BMMC leukemic blasts [4] (NR samples, older patient cohort (>=60 years)) was “increases in p-AKT and p-PLCγ2”. Further, the “Mean Value of CRs, p-Akt Fold” value in the test with AML BMMC leukemic blasts [4] (Study No. 2, all patients, CR samples) was 0.68. Further, the “Mean Value of NRs, p-Akt Fold” value in the test with AML BMMC leukemic blasts [4] (Study No. 2, all patients, NR samples) is given as 0.91. Further, in the test on AML BMMC leukemic blasts [4] (patients younger than 60 years old (so in the source)), the “H2O2 and FLT3L responses, NR vs CR” value was “NRs have higher H2O2 and FLT3L responses than CRs”. Further, the “p-Akt and p-PLC gamma levels with hydrogen peroxide as modulator” value in test [3] (NR samples) is “lower p-Akt and p-PLC gamma levels in NR samples”.
Consider `C[C@@H]1CCN(C(=O)CC#N)C[C@@H]1N(C)c1ncnc2[nH]ccc12` [CP-690,550], for which the “sensitivity to kinase inhibitor as measured by cytostasis readouts” value in the test on AML leukemic cells is “most sensitive”.

Source of the values: US8399206B2, “Methods for diagnosis, prognosis and methods of treatment” (Nodality, Inc., priority 2008, dated 2013).
